In publication PMC4533833 (ACS chemical biology, 2015):
Where two headings read alike, the source gives them in different places.

Assays:
V561M FGFR1 = experiment: Intrinsic protein fluorescence quenching titration, V561M FGFR1; format: binding, Human; details: for fold decrease in affinity (increase in Kd) for V561M relative to WT FGFR1: Kd V561M FGFR1 versus Kd WT FGFR1
FGFR1 [1] = details: read-out: IC50 (enzyme); cited from earlier work
FGFR1 [2] = details: read-out: IC50 (cells); cited from earlier work

Compound | fold decrease in affinity (increase in Kd) for V561M relative to WT FGFR1 (V561M FGFR1) [fold] | IC50 (FGFR1 [1]) [nM] | IC50 (FGFR1 [2]) [nM] | fold greater loss of affinity for E3810 compared to AZD4547 conferred by the V561M FGFR1 mutation (V561M FGFR1; E3810 versus AZD4547)
AZD4547 | 32 | 0.2 | 12 | –
CNC(=O)c1cccc2cc(Oc3ccnc4cc(OCC5(N)CC5)c(OC)cc34)ccc12 [E3810] | 5000 | – | – | over 150 fold
